Measured values from US12636260B2, “Application of α-asarone in preparation of medicine for preventing or treating hemorrhagic stroke” (CHENGDU XINRUI TAIKANG TECHNOLOGY CO., LTD., priority 2021, dated 2026).

What was measured:
ICH rats [1] = test: Short-term neurological function of ICH rats (Garcia score, beam balance test); assay type: in vivo, rat; details: ICH model; for Beam balance score / Garcia score: 24 hours after modeling
Method: Experimental grouping: At 2 h after endovascular perforation or collagenase VII injection, Zea Longa score was used to evaluate the neurological function of rats. Successful model rats were randomly divided into groups for administration.
All groups were administrated through the tail vein injection except for group N administrated intraperitoneally.
The rats were fasted for 12 hours before operation, and were anesthetized with 4% isoflurane, and kept anesthetized with 2% isoflurane. The animals were fixed in the prone position in a stereotaxic apparatus with the body temperature maintained at about 37° C. A traditional skin incision of the head was prepared along the midline. According to the stereotaxic atlas of the rat brain translated by Zhuge Qichao (George Paxinos, Charles Watson, Paxinos, Watson, & Zhuge Qichao. The Rat Brain in Stereotaxic Coordinates [M]. People's Medical Publishing House, 2005), the right caudate nucleus of the rat was determined as 0.0 mm anterior, 3.0 mm lateral to the bregma, and 5.5 mm ventral to the cortical surface. After labeling, we drilled an open window in the skull, and 1 μL of 0.5 U collagenase VII was slowly injected for 5 minutes with a microinjector. After the injection, the needle was stagnated for 8 minutes and slowly withdrawn. Then the scalp was sutured after the burr hole of skull was sealed with a sterile bone wax, and the rats were returned to the cage for normal feeding. The sham group conducted the same procedure as the model group, but received an equal volume of physiological saline into the caudate nucleus.
According to Zea Longa's neurological function score, the rats were scored 2 hours after the operation when they were awake from anesthesia. Successful model rats with a score of 1 to 3 points were enrolled in the group: • 0 points: no neurological deficits with normal activity; • 1 point: inability to fully extend the contralateral forepaw; • 2 points: the animal appears to turn in circles when crawling; • 3 points: the animal tends to lean to the hemiplegic side; • 4 points: the animal cannot walk spontaneously or loses consciousness. 1.4 Assessment of Short-Term Neurological Function
The neurological function of rats was comprehensively evaluated with Garcia score and beam balance test 24 hours after modeling. The criteria of Garcia score are shown in Table 1, which evaluates the movement, sensation, climbing and limb symmetry of the rats with the score range of 3 to 18 points. The lower the score, the more severe the neurological injury. The criteria of the beam balance test are shown in Table 2, which evaluated the proprioception and body coordination of rats with the score range of 0 to 6 points. The higher the score, the more severe the neurological injury. Scoring was done independently by a technician blinded to the modeling and drug administration.

SAH rats [2] = test: Morris water maze and brain tissue atrophy of SAH rats in recovery phase; assay type: in vivo, rat
Method: Morris water maze was used to evaluate the long-term spatial perception and memory ability of rats in each group, and was performed after the survival observation, i.e., 15 to 19 days after SAH. The water maze was a circular pool with a diameter of 150 cm and a depth of 60 cm. Before the experiment, warm water (24±2)° C. was filled to a depth of 30 cm and colored black with ink. The pool was equally divided into four quadrants, and different signs were pasted on the walls of different quadrants to indicate the difference. A transparent platform with a diameter of 10 cm and a height of 28 cm was placed in the center of one quadrant, and was 2 cm beneath the water. Rats were released from the designated quadrant according to the experimental guidelines. On day 1 to 4, rats were successively released into water from four corresponding quadrants with a 10-minute interval. If the rat found the platform within 60 seconds, it was allowed to remain there for 10 seconds; if not, it was guided to the platform with a rod and allowed to stand there for 10 seconds. On day 5, the platform was removed and the rats were allowed to swim freely for 60 seconds. The escape latency, swimming speed and dwelling time on the target quadrant were recorded using a computerized tracking system (Noldus Ethovision, Tacoma, WA, USA).

ICH rats [3] = test: Brain water content and blood-brain barrier permeability (Evans blue), ICH rats; assay type: in vivo, rat; details: 24 hours after operation, group M, medium-dose intravenous, vs model group
Method: After completing the evaluation of 24-hour short-term neurological function, 4% Evans blue solution (2.5 mL/kg) was injected into the right caudal vein of the rats. After circulated for 1 hour, the rats were deeply anesthetized and transcardinally perfused with 100 mL of normal saline to collect the rats' brain. The whole brain was divided into four groups: left hemisphere (LH), right hemisphere (RH), cerebellum (Cb) and brainstem (BS). The left and right hemispheres were coronally divided into two parts, one part was immediately weighed (wet weight) with a balance with an accuracy of 0.1 mg, dried in an oven at 105° C. for 24 hours and weighed again (dry weight). The brain water content was calculated as [(wet weight−dry weight)/wet weight]×100%. The other part of the brain tissue was weighed (wet weight) and emerged into 10 times the volume of pure formamide, incubated at 60° C. for 48 hours, centrifuged at 25° C. for 30 min (10,000 rpm/min). The Evans blue in the supernatant was measured at 622 nm by a UV spectrophotometry, and calculated with a standard curve for quantification. The amount of Evans blue was expressed as μg/g of brain tissue (wet weight).

SAH rats [4] = test: Glutamate and GABA content in brain tissue, SAH rats; assay type: in vivo, rat; details: 12 to 24 hours after operation, group M
Method: (§1) The rats were deeply anesthetized, and decapitated to collect the brain at 12-24 hours after modeling. Then about 60 to 120 mg of brain cortex on the hemorrhagic side were weighed, homogenized with 10 times the volume of ice-cold centrifuge buffer for biochemical detection, homogenized for 10 min in an ice bath, and centrifuged at 4° C. for 30 minutes (14,000 rpm/min). The contents of glutamate and GABA in the supernatant were detected according to the instructions of glutamate content detection kit and rat GABA Elisa kit.

ICH rats [5] = test: Glutamate and GABA content in brain tissue, ICH rats; assay type: in vivo, rat; details: 12 to 24 hours after operation, group M
Method: as §1

[6] = Toxic and side effects observed during all the experiments; assay type: in vivo; details: during all the experiments of the disclosure
SAH rats [7] = test: Short-term neurological function of SAH rats (Garcia score, beam balance test, bleeding score); assay type: in vivo, rat; details: SAH model, 24 hours after modeling; group O, α-asarone emulsion oral administration 40 mg/kg
ICH rats [8] = test: Short-term neurological function of ICH rats (Garcia score, beam balance test); assay type: in vivo, rat; details: ICH model, 24 hours after modeling; group O, α-asarone emulsion oral administration 40 mg/kg
[9] = group H, α-asarone emulsion injection 30 mg/kg tail vein
[10] = group L, α-asarone emulsion injection 7.5 mg/kg tail vein
[11] = group M, α-asarone emulsion injection 15 mg/kg tail vein

C/C=C/c1cc(OC)c(OC)cc1OC [α-asarone, trans-2,4,5-trimethoxy-1-propenylbenzene] gave a Beam balance score (ICH rats [1]; [9]) of 3.31, a Garcia score (ICH rats [1]; [9]) of 10.01 and a Beam balance score (ICH rats [1]; [10]) of 3.16. For the same compound, the Garcia score (ICH rats [1]; [10]) was 10.60, the Beam balance score (ICH rats [1]; [11]) was 3.09 and the Garcia score (ICH rats [1]; [11]) was 10.68. The “curative effect compared with group V (vinpocetine) and group N (nimodipine)” value (ICH rats [1]; groups L and M, 7.5 and 15 mg/kg) was “better”, the “escape latency during the training period” value (SAH rats [2]; Morris water maze, 15 to 19 days after SAH, group M, vs group S) was “significantly decreased” and the swimming speed (SAH rats [2]; Morris water maze, group M vs group S (P<0.05)) was “significantly faster”. The “time in the target quadrant, spatial probe test” value (SAH rats [2]; Morris water maze, group M, vs group S) was “notably prolonged”, the brain atrophy (SAH rats [2]; SAH rats after long-term administration, group M) was “significantly rescued” and the Evans blue content (ICH rats [3]) was “significantly reduce”. The brain water content (ICH rats [3]) was “significantly reduce”, the “GABA content in the hemorrhagic brain tissue” value (SAH rats [4]) was “significantly reduce” and the “glutamate content in the hemorrhagic brain tissue” value (SAH rats [4]) was “significantly reduce”. For the same compound, the “GABA content in the hemorrhagic brain tissue” value (ICH rats [5]) was “significantly reduce”, the “glutamate content in the hemorrhagic brain tissue” value (ICH rats [5]) was “significantly reduce” and the “toxic and side effects” value [6] was “no obvious toxic and side effects”. The Beam balance score (SAH rats [7]) was 3.30, the Garcia score (SAH rats [7]) was 10.94 and the Beam balance score (ICH rats [8]) was 3.41. For the same compound, the Garcia score (ICH rats [8]) was 10.17.
